Active and inactive are the calls of the source. The calls are words filed in the database; no cut-off is given here.
What was measured:
Rattus norvegicus [1] = experiment: Ulcerogenic activity in Wistar rat at 3000 mg/kg, po by cold stress method relative to control; format: toxicity, organism-based; design: dose 3000 mg/kg, route oral; conditions: in vivo
Rattus norvegicus [2] = experiment: Effect on TNBS-induced experimental colitis in po dosed Sprague-Dawely rat assessed as colon to body weight ratio after 5 days relative to control; format: functional
Rattus norvegicus [3] = experiment: Effect on TNBS-induced experimental colitis in rectally dosed Sprague-Dawely rat assessed as colon to body weight ratio relative to control; format: functional
[4] = Aqueous solubility of the compound; format: physicochemical
Rattus norvegicus [5] = experiment: Ulcerogenic activity in Wistar rat at 2829 mg/kg, po by cold stress method relative to control; format: toxicity, organism-based; design: dose 2829 mg/kg, route oral; conditions: in vivo
[6] = Partition coefficient, log P in n-octanol/phosphate buffer at pH 7.4; format: physicochemical
Rattus norvegicus [7] = experiment: Decrease in TNBS-induced colonic damage in po dosed Sprague-Dawely rat; format: functional, organism-based
Rattus norvegicus [8] = experiment: Ulcerogenic activity in Wistar rat at 2290 mg/kg, po by cold stress method relative to control; format: toxicity, organism-based; design: dose 2290 mg/kg, route oral; conditions: in vivo

solubility [4] [mg/mL]	logD [6]	SMILES	UI (Rattus norvegicus [1])	Ratio (Rattus norvegicus [2])	Ratio (Rattus norvegicus [3])	UI (Rattus norvegicus [5])	Activity (Rattus norvegicus [7])	UI (Rattus norvegicus [8])
		O=C(O)c1cc(/N=N/c2ccc(S(=O)(=O)Nc3ccccn3)cc2)ccc1O [SULFASALAZINE]	9	0.008				
280	0.26	O=C([O-])c1cc(/N=N/C(Cc2c[nH]c3ccccc23)C(=O)[O-])ccc1O.[Na+].[Na+] (centres undefined)			0.0073	13	Active	
	0.64	Nc1ccc(O)c(C(=O)O)c1 [MESALAMINE]						59.6
